Reference: ChEMBL document CHEMBL1133281, “Synthesis and HIV-1 integrase inhibitory activities of caffeoylglucosides” (Bioorg Med Chem Lett, 2000)

Target: Human immunodeficiency virus type 1 integrase (Human immunodeficiency virus 1, UniProt Q7ZJM1)
Test: Inhibitory activity against HIV-1 integrase

Chain of Human immunodeficiency virus type 1 integrase (Q7ZJM1 whole entry): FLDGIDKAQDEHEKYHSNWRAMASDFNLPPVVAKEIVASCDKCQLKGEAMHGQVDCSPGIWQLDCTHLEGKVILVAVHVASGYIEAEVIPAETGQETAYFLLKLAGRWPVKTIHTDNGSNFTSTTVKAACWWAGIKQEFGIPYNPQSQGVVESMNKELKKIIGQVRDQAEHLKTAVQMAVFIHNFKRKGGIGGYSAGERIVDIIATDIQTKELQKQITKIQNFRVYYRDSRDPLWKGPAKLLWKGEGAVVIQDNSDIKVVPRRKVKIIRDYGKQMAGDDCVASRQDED

| Structure (SMILES) | IC50 |
| --- | --- |
| CO[C@H]1O[C@H](COC(=O)/C=C/c2ccc(O)c(O)c2)[C@@H](OC(=O)/C=C/c2ccc(O)c(O)c2)[C@H](OC(=O)/C=C/c2ccc(O)c(O)c2)[C@H]1OC(=O)/C=C/c1ccc(O)c(O)c1 | > 119 µM |
| CO[C@@H]1O[C@H](COC(=O)/C=C/c2ccc(O)c(O)c2)[C@@H](O)[C@H](OC(=O)/C=C/c2ccc(O)c(O)c2)[C@H]1O | 35.1 µM |
| CO[C@@H]1O[C@H](COC(=O)/C=C/c2ccc(O)c(O)c2)[C@@H](O)[C@H](O)[C@H]1OC(=O)/C=C/c1ccc(O)c(O)c1 | 30.5 µM |
| CO[C@H]1O[C@H](CO)[C@@H](O)[C@H](OC(=O)/C=C/c2ccc(O)c(O)c2)[C@H]1OC(=O)/C=C/c1ccc(O)c(O)c1 | 29.1 µM |
| CO[C@H]1O[C@H](COC(=O)/C=C/c2ccc(O)c(O)c2)[C@@H](O)[C@H](OC(=O)/C=C/c2ccc(O)c(O)c2)[C@H]1O | 82.4 µM |
| COC1O[C@H](CO)[C@@H](O)[C@H](OC(=O)c2cc(O)c(O)c(O)c2)[C@H]1OC(=O)c1cc(O)c(O)c(O)c1 (stereo partly specified) | 5.4 µM |
| CO[C@@H]1O[C@H](CO)[C@@H](O)[C@H](OC(=O)/C=C/c2ccc(O)c(O)c2)[C@H]1OC(=O)/C=C/c1ccc(O)c(O)c1 | 31.8 µM |
| CO[C@@H]1O[C@H](COC(=O)/C=C/c2ccc(O)c(O)c2)[C@@H](OC(=O)/C=C/c2ccc(O)c(O)c2)[C@H](OC(=O)/C=C/c2ccc(O)c(O)c2)[C@H]1OC(=O)/C=C/c1ccc(O)c(O)c1 | 89.6 µM |
| CO[C@H]1O[C@H](COC(=O)/C=C/c2ccc(O)c(O)c2)[C@@H](O)[C@H](O)[C@H]1OC(=O)/C=C/c1ccc(O)c(O)c1 | 70 µM |
| C[C@@H]1O[C@@H](O[C@@H]2[C@@H](O)[C@H](OCCc3ccc(O)c(O)c3)O[C@H](CO)[C@H]2OC(=O)/C=C/c2ccc(O)c(O)c2)[C@H](O)[C@H](O)[C@H]1O [ACETOSIDE] | 7.8 µM |
| COc1cc(/C=C/C(=O)CC(=O)/C=C/c2ccc(O)c(OC)c2)ccc1O [CURCUMIN] | 57.5 µM |
